Test results as given in ChEMBL document CHEMBL6074698, “Heteroaryl Glutarimides and Dihydrouracils as Cereblon Ligand Scaffolds for Molecular Glue Degrader Discovery” (ACS Med Chem Lett, 2024).

Assays:
physchem [1] = details: PBS, pH 7.4
in vitro = details: human
physchem [2] = details: DMEM buffer, pH 7.4

SMILES | logD (physchem [1]) | half-life at 24 h (in vitro; MV4-11 cells) [h] | half-life at 48 h (physchem [2]) [h] | half-life at 24 h (in vitro; mv4-11) [h]
O=C1CCN(c2ccccc2)C(=O)N1 | 0.3 |  |  | 
O=C1CCC(c2ccccc2)C(=O)N1 (stereo not drawn) | 0.6 | > 24 |  | 
O=C1CCC(c2cccc3cc[nH]c23)C(=O)N1 (stereo not drawn) | 1.4 |  |  | 
O=C1CCC(c2ccc3[nH]ncc3c2)C(=O)N1 (stereo not drawn) | 0.3 |  |  | 
O=C1CCC(c2ccnc3[nH]ncc23)C(=O)N1 (stereo not drawn) | -0.3 |  |  | 
Nc1cccc2c1CN(C1CCC(=O)NC1=O)C2=O (stereo not drawn) [LENALIDOMIDE] |  | 12 | 0.9 | 
Nc1cccc2c1C(=O)N(C1CCC(=O)NC1=O)C2=O (stereo not drawn) [POMALIDOMIDE] | 1.3 |  | 0.4 | 12
O=C1CCC(N2C(=O)c3ccccc3C2=O)C(=O)N1 (stereo not drawn) [THALIDOMIDE] | 0.7 | 3.3 |  | 
